Test results reported in ChEMBL document CHEMBL3045654, “Mechanisms of Low Susceptibility to Imidacloprid in a Laboratory Strain of the Small Brown Planthopper, Laodelphax striatellus FALLEN” (J Pestic Sci, 1997).

Key:
Laodelphax striatellus [1] = test: Drug penetration inLaodelphax striatella S (small brown planthopper) at 0.1 ng/insect treated topically after 1 hr; assay type: ADME, organism-based; settings: in vivo, topical_or_ocular
Laodelphax striatellus [2] = test: Insecticidal activity againstLaodelphax striatella N (small brown planthopper) treated topically after 24 hr in presence of 20 ng/insect of […]; assay type: functional; settings: topical
Laodelphax striatellus [3] = test: Insecticidal activity againstLaodelphax striatella S (small brown planthopper) treated topically after 24 hr; assay type: functional; settings: topical
Laodelphax striatellus [4] = test: Insecticidal activity againstLaodelphax striatella N (small brown planthopper) treated topically after 24 hr; assay type: functional; settings: topical
Laodelphax striatellus [5] = test: Insecticidal activity againstLaodelphax striatella N (small brown planthopper) treated topically after 24 hr in presence of 40 ng/insect of piperonylbutoxide; assay type: functional; settings: topical
Laodelphax striatellus [6] = test: Drug penetration inLaodelphax striatella N (small brown planthopper) at 0.1 ng/insect treated topically after 1 hr; assay type: ADME, organism-based; settings: in vivo, topical_or_ocular
Laodelphax striatellus [7] = test: Insecticidal activity againstLaodelphax striatella N (small brown planthopper) treated topically after 24 hr in presence of 2 ng/insect of tributylphosportrithioate; assay type: functional; settings: topical

**Q.** How did the Drug uptake (Laodelphax striatellus [1]) turn out when `O=[N+]([O-])NC1=NCCN1Cc1ccc(Cl)nc1` [IMIDACLOPRID] was run?
**A.** 20%

**Q.** And the LD50 (Laodelphax striatellus [2])?
**A.** 1.19 mg/kg

**Q.** What about the LD50 (Laodelphax striatellus [3]) of the same molecule?
**A.** 0.12 mg/kg

**Q.** What about the LD50 (Laodelphax striatellus [4]) of the same molecule?
**A.** 2.17 mg/kg

**Q.** What about the LD50 (Laodelphax striatellus [5]) of the same molecule?
**A.** 1.11 mg/kg

**Q.** And the Drug uptake (Laodelphax striatellus [6])?
**A.** 20%

**Q.** And the LD50 (Laodelphax striatellus [7])?
**A.** 1.06 mg/kg
